# Measurements as given in ChEMBL document CHEMBL6115037, “Discovery of novel small molecules targeting TGF-β signaling for the treatment of non-small cell lung cancer” (Eur J Med Chem, 2025).
# Activity calls are given as the source filed them. The calls are words filed in the database; no cut-off is given here.
# Assays:
# [1] = system: A549; assay: Antiproliferative activity against human A549 cells assessed as inhibition of cell growth measured after 72 hrs by SRB method; format: functional, cell-based; conditions: A549, 72 h
# [2] = Water solubility of the compound in PBS buffer at pH 7.4 incubated for 24 hrs under shaking condition by HPLC analysis; format: physicochemical
# [3] = Water solubility of the compound in PBS buffer at pH 2.0 incubated for 24 hrs under shaking condition by HPLC analysis; format: physicochemical
# [4] = Water solubility of the compound […] at pH 9.0 incubated for 24 hrs under shaking condition by HPLC analysis; format: physicochemical
# [5] = Permeability of the compound in PBS buffer assessed as drug recovery at pH 7.4 incubated for 16 hrs by PAMPA method; format: ADME; conditions: read-out: Drug recovery
# [6] = system: NCI-H1299; assay: Inhibition of colony formation in human NCI-H1299 cells at 0.05 to 0.5 uM measured after 48 hrs by crystal violet staining based inverted microscopic analysis; format: functional, cell-based; conditions: dose 0.05-0.5 µM
# [7] = system: A549; assay: Induction of cell cycle arrest in human A549 cells assessed as accumulation at G2/M phase measured after 48 hrs by flow cytometric analysis; format: functional, cell-based; conditions: dose 0.05-0.5 µM
# [8] = Toxicity in female BALB/c nude mouse assessed as effect on body weight loss at 10 mg/kg via gavage fed with corn oil for every other day; format: organism-based; conditions: in vivo, po
# [9] = system: A549; assay: Antitumor activity against human A549 cells xenografted in female BALB/c nude mouse model assessed as decrease in TbetaRI expression level at 10 mg/kg via gavage by Western blot analysis; format: functional, organism-based
# [10] = system: A549; assay: Antitumor activity against human A549 cells xenografted in female BALB/c nude mouse model assessed as decrease in Ki-67 expression at 10 mg/kg via gavage by immunochemical staining based analysis; format: functional, organism-based
# [11] = system: A549; assay: Inhibition of cell migration in human A549 cells incubated for 48 hrs by wound healing assay; format: functional, cell-based; conditions: dose 0.05-0.5 µM
# [12] = system: A549; assay: Induction of cell apoptosis in human A549 cells assessed as increase in early apoptotic cells at 0.05 uM measured after 48 hrs by Annexin V-FITC/PI staining based flow cytometry analysis; format: functional
# [13] = system: A549; assay: Antitumor activity against human A549 cells xenografted in female BALB/c nude mouse model assessed as decrease in TbetaRI level at 10 mg/kg via gavage by immunochemical staining based analysis; format: functional, organism-based
# [14] = system: A549; assay: Inhibition of cell invasion in human A549 cells incubated for 48 hrs by crystal violet staining based transwell assay; format: functional; conditions: dose 0.05-0.5 µM
# [15] = system: NCI-H522; assay: Antiproliferative activity against human NCI-H522 cells assessed as inhibition of cell growth measured after 72 hrs by SRB method; format: functional, cell-based; conditions: NCI-H522, 72 h
# [16] = system: A549; assay: Downregulation of Smad2/3 phosphorylation level in human A549 cells measured after 48 hrs by Western blot analysis; format: functional, cell-based; conditions: dose 0.05-0.5 µM
# [17] = system: A549; assay: Induction of cell cycle arrest in human A549 cells assessed as accumulation at G2/M phase at high concentration measured after 48 hrs by flow cytometric analysis; format: functional, cell-based
# [18] = system: NCI-H1299; assay: Antiproliferative activity against human NCI-H1299 cells harbouring TbetaI by Western blot analysis; format: functional, cell-based; conditions: dose 0.05-0.5 µM
# [19] = system: A549; assay: Antitumor activity against human A549 cells xenografted in female BALB/c nude mouse model assessed as decrease in tumor volume at 10 mg/kg via gavage fed with corn oil and measured every other day; format: functional, organism-based
# [20] = system: A549; assay: Downregulation of TbetaRI protein expression in human A549 cells measured after 48 hrs by Western blot analysis; format: functional, cell-based; conditions: dose 0.05-0.5 µM
# [21] = system: NCI-H441; assay: Antiproliferative activity against human NCI-H441 cells assessed as inhibition of cell growth measured after 72 hrs by SRB method; format: functional, cell-based; conditions: NCI-H441, 72 h
# [22] = system: A549; assay: Inhibition of cell migration in human A549 cells at 0.5 uM incubated for 48 hrs by wound healing assay relative to control; format: functional
# [23] = system: A549; assay: Antitumor activity against human A549 cells xenografted in female BALB/c nude mouse model assessed as decrease in tumor weight at 10 mg/kg via gavage fed with corn oil and measured every other day; format: functional, organism-based
# [24] = system: A549; assay: Induction of cell apoptosis in human A549 cells assessed as increase in early apoptotic cells measured after 48 hrs by Annexin V-FITC/PI staining based flow cytometry analysis; format: functional; conditions: dose 0.05-0.5 µM
# [25] = system: A549; assay: Antiproliferative activity against human A549 cells harbouring si-NC at 0.5 uM by Western blot analysis relative to control; format: functional
# [26] = system: A549; assay: Inhibition of colony formation in human A549 cells at 0.5 uM measured after 48 days by crystal violet staining based inverted microscopic analysis relative to control; format: functional; conditions: A549, 1152 h, time 48 day
# [27] = system: A549; assay: Inhibition of cell invasion in human A549 cells at 0.5 uM incubated for 48 hrs by crystal violet staining based transwell assay relative to control; format: functional
# [28] = system: A549; assay: Antiproliferative activity against human A549 cells harbouring TbetaI knockout at 0.5 uM by Western blot analysis; format: functional, cell-based
# [29] = system: NCI-H1299; assay: Antiproliferative activity against human NCI-H1299 cells assessed as inhibition of cell growth measured after 72 hrs by SRB method; format: functional, cell-based; conditions: NCI-H1299, 72 h
smiles,measurement,setting,value
NCCC(=O)Nc1cc(C(=O)NCCO)c2[nH]c3c(c2c1)CCN(C(=O)Cc1ccccc1F)C3,IC50,[1],> 5000 nM
O=C(Cc1ccccc1)N1CCc2c([nH]c3ccccc23)C1,solubility thermodynamic at 24 h,[2],7.24 µM
same,IC50,[1],9130 nM
same,solubility thermodynamic at 24 h,[3],2.23 µM
same,solubility thermodynamic at 24 h,[4],10.7 µM
same,recovery at 16 h,[5],24.4%
O=C(NC1CCCC1O)c1cccc2c3c([nH]c12)CN(C(=O)Cc1ccccc1F)CC3 (stereo not drawn),IC50,[1],930 nM
O=C(NCCO)c1cccc2c3c([nH]c12)CN(C(=O)Cc1cccs1)CC3,IC50,[1],380 nM
O=C(NC1CCCCC1O)c1cccc2c3c([nH]c12)CN(C(=O)Cc1ccccc1F)CC3 (stereo not drawn),IC50,[1],> 5000 nM
O=C(NCCO)c1cccc2c3c([nH]c12)CN(C(=O)Cc1ccccc1F)CC3,IC50,[1],220 nM
O=C(Cc1ccccc1F)N1CCc2c([nH]c3c(C(=O)N4CCC(O)C4)cccc23)C1 (stereo not drawn),IC50,[1],> 5000 nM
O=C(Cc1ccccc1F)N1CCc2c([nH]c3c(C(=O)N4CCC(CO)CC4)cccc23)C1,IC50,[1],> 5000 nM
O=C(NC1CCCC1O)c1cccc2c3c([nH]c12)CN(C(=O)Cc1cccs1)CC3 (stereo not drawn),IC50,[1],70 nM
O=C(NC12CC3CC(CC(O)(C3)C1)C2)c1cccc2c3c([nH]c12)CN(C(=O)Cc1ccccc1F)CC3,IC50,[1],130 nM
O=C(NC1CCC(O)C1)c1cccc2c3c([nH]c12)CN(C(=O)Cc1cccs1)CC3 (stereo not drawn),inhibition,[6],Active
same,solubility thermodynamic at 24 h,[2],41.4 µM
same,Activity,[7],Dose-dependent-effect
same,Activity,[8],Non-toxic
same,Activity,[9],Active
same,IC50,[1],50 nM
same,Activity,[10],Active
same,inhibition,[11],Dose-dependent-effect
same,Activity,[12],Active
same,Activity,[13],Active
same,inhibition,[14],Dose-dependent-effect
same,IC50,[15],260 nM
same,Activity,[16],Dose-dependent-effect
same,Activity,[17],Active
same,Activity,[18],Dose-dependent-effect
same,Activity,[19],Active
same,solubility thermodynamic at 24 h,[3],40 µM
same,solubility thermodynamic at 24 h,[4],50.4 µM
same,Activity,[20],Dose-dependent-effect
same,IC50,[21],90 nM
same,inhibition at 0.5 µM,[22],100%
same,Activity,[23],Active
same,Activity,[24],Dose-dependent-effect
same,recovery at 16 h,[5],65.8%
same,Activity,[25],100%
same,inhibition at 0.5 µM,[26],100%
same,inhibition at 0.5 µM,[27],100%
same,Activity,[28],inactive
same,IC50,[29],210 nM
NC1CCC(OC(=O)c2cccc3c4c([nH]c23)CN(C(=O)Cc2ccccc2F)CC4)CC1 (stereo not drawn),IC50,[1],> 5000 nM
O=C(NC1CCC(O)C1)c1cccc2c3c([nH]c12)CN(C(=O)Cc1ccccc1F)CC3 (stereo not drawn),IC50,[1],220 nM
O=C(NC1CCCC(O)C1)c1cccc2c3c([nH]c12)CN(C(=O)Cc1ccccc1F)CC3 (stereo not drawn),IC50,[1],120 nM
O=C(NCCO)c1cccc2c3c([nH]c12)CN(S(=O)(=O)Cc1ccccc1F)CC3,IC50,[1],1640 nM
O=C(NC1CCC(C(=O)O)C1)c1cccc2c3c([nH]c12)CN(C(=O)Cc1ccccc1F)CC3 (stereo not drawn),IC50,[1],> 5000 nM
O=C(NCCO)c1cccc2c3c([nH]c12)CN(C(=O)Cc1ccco1)CC3,IC50,[1],4010 nM
O=C(NCCO)c1cc(NC(=O)C2CCOCC2)cc2c3c([nH]c12)CN(C(=O)Cc1ccccc1F)CC3,IC50,[1],> 5000 nM
O=C(Cc1ccccc1F)N1CCc2c([nH]c3c(C(=O)N4CCC(O)CC4)cccc23)C1,IC50,[1],> 5000 nM
C=CC(=O)Nc1cc(C(=O)NCCO)c2[nH]c3c(c2c1)CCN(C(=O)Cc1ccccc1F)C3,IC50,[1],> 5000 nM
CC(=O)Nc1cc(C(=O)NCCO)c2[nH]c3c(c2c1)CCN(C(=O)Cc1ccccc1F)C3,IC50,[1],> 5000 nM
O=C(NCCO)c1cccc2c3c([nH]c12)CN(C(=O)Cc1c(F)cccc1F)CC3,IC50,[1],> 5000 nM
CN(Cc1cnc2nc(N)nc(N)c2n1)c1ccc(C(=O)N[C@@H](CCC(=O)O)C(=O)O)cc1 [METHOTREXATE],recovery at 16 h,[5],96.2%
O=C(NCCO)c1cccc2c3c([nH]c12)CN(C(=O)Nc1ccccc1F)CC3,IC50,[1],> 5000 nM
O=C(NCCO)c1cccc2c3c([nH]c12)CN(C(=O)NCc1ccccc1F)CC3,IC50,[1],> 5000 nM
NC1CCC(NC(=O)c2cccc3c4c([nH]c23)CN(C(=O)Cc2ccccc2F)CC4)C1 (stereo not drawn),IC50,[1],> 5000 nM
O=C(Cc1ccccc1F)N1CCc2c([nH]c3c(C(=O)N4CCNCC4)cccc23)C1,IC50,[1],> 5000 nM
O=C(NCCO)c1cc(NC(=O)C2CCNCC2)cc2c3c([nH]c12)CN(C(=O)Cc1ccccc1F)CC3,IC50,[1],> 5000 nM
O=C(NC1CCC(O)CC1)c1cccc2c3c([nH]c12)CN(C(=O)Cc1ccccc1F)CC3 (stereo not drawn),IC50,[1],490 nM
C[C@]12CC[C@H]3[C@@H](CCC4=CC(=O)CC[C@@]43C)[C@@H]1CC[C@@H]2O [TESTOSTERONE],recovery at 16 h,[5],85.6%
O=C(Cc1ccccc1F)N1CCc2c([nH]c3c(C(=O)N4CCN(C5COC5)CC4)cccc23)C1,IC50,[1],> 5000 nM
